From US10988465B2, “CXCR4 inhibitors and uses thereof” (X4 Pharmaceuticals, Inc., priority 2016, dated 2021)

Experiments:
[1] = target: T1, CXCR-4 transfected U87 cell line (U87.CXCR4) (Homo sapiens, UniProt P61073); assay: Intracellular CXCL-12-induced calcium mobilization assay (FLIPR); format: cell-based; settings: U87.CXCR4 cells; CXCL-12 25-50 ng/mL; compound added 15 min before; read-out: IC50 CXCL-12 Ca^2+ flux U87.CXCR4+
T1 construct: expressed in transfected cells; host or cells: U87 (U87.CXCR4)
T1 sequence (P61073 whole entry): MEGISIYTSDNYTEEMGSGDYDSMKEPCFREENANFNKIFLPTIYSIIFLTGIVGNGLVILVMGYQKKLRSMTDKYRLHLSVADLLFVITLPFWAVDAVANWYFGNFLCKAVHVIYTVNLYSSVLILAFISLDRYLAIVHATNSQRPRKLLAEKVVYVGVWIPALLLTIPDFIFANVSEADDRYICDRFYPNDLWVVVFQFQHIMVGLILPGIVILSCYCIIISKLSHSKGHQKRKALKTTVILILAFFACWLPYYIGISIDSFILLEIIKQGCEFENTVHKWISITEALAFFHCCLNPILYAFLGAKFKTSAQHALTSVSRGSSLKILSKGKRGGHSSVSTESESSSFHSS
Method: Example 36: REGA Screening Assay
Intracellular CXCL-12-Induced Calcium Mobilization Assay
Intracellular calcium mobilization induced by chemokines or chemokine-derived peptides were evaluated using a calcium responsive fluorescent probe and a FLIPR system. The CXCR-4 transfected U87 cell line (U87.CXCR4) cells were seeded in gelatine-coated black-wall 96-well plates at 20,000 cells per well and incubated for 12 hours. Cells were then loaded with the fluorescent calcium probe Fluo-2 acetoxymethyl at 4 μM final concentration in assay buffer (Hanks' balanced salt solution with 20 mM HEPES buffer and 0.2% bovine serum albumin, pH 7.4) for 45 min at 37° C. The intracellular calcium mobilization induced by the CXCL-12 (25-50 ng/mL) was then measured at 37° C. by monitoring the fluorescence as a function of time in all the wells simultaneously using a fluorometric imaging plate reader (FLIPR Tetra, Molecular Devices).

[2] = target: T2, Jurkat cells expressing CXCR4 (Homo sapiens, UniProt P61073); assay: Chemokine (CXCL12-AF647) binding inhibition assay; settings: CXCL12-AF647 25 ng/mL, read-out: IC50 CXCL-12 binding Jurkat
T2 construct: endogenous in cells; host or cells: Jurkat
T2 sequence (P61073 whole entry): as above
Method: Chemokine (CXCL12-AF647) Binding Inhibition Assay
Jurkat cells expressing CXCR4 were washed once with assay buffer (Hanks' balanced salt solution with 20 mM HEPES buffer and 0.2% bovine serum albumin, pH 7.4) and then incubated for 15 min at room temperature with the test compounds diluted in assay buffer at dose-dependent concentrations. Subsequently, CXCL12-AF647 (25 ng/mL) was added to the compound-incubated cells. The cells were incubated for 30 min at room temperature. Thereafter, the cells were washed twice in assay buffer, fixed in 1% paraformaldehyde in PBS, and analyzed on the FL4 channel of a FACSCalibur flow cytometer equipped with a 635-nm red diode laser (Becton Dickinson, San Jose, Calif., USA).
The percentages of inhibition of CXCL12-AF647 binding were calculated according to the formula: [1−((MFI−MFINC)/(MFIPC−MFINC))]×100 where MFI is the mean fluorescence intensity of the cells incubated with CXCL12-AF647 in the presence of the inhibitor, MFINC is the mean fluorescence intensity measured in the negative control (i.e., autofluorescence of unlabeled cells), and MFIPC is the mean fluorescence intensity of the positive control (i.e., cells exposed to CXCL12-AF647 alone).

[3] = in vitro; settings: human, Caco-2, pH 7.4
Method: Example 37: Caco-2 Permeability Assay
The goal of this assay was to evaluate the intestinal absorption potential of drug candidates using Caco-2 cell lines.
HBSS buffer with 0.3% DMSO and 5 μM LY: add 150 μL DMSO and 50 μL LY (5 mM) into 50 ml HBSS buffer (pH 7.4).
HBSS buffer with 0.1% DMSO and 5 μM LY: add 50 μL DMSO and 50 μL LY (5 mM) into 50 mL HBSS buffer (pH 7.4).
HBSS buffer with 0.3% DMSO: add 150 μL DMSO into 50 ml HBSS buffer (pH 7.4).
HBSS buffer with 0.1% DMSO: add 50 μL DMSO into 50 ml HBSS buffer (pH 7.4).
Prepare HBSS buffer with 0.4% DMSO: add 200 μL DMSO into 50 ml HBSS buffer (pH 7.4).
Prepare HBSS buffer with 0.4% DMSO and 5 μM LY: add 200 μL DMSO and 50 μL LY (5 mM) into 50 ml HBSS buffer (pH 7.4).
4. Measure TEER Take cell culture plate out of incubator, wash the cell monolayers with HBSS buffer, and then measure TEER values at Rm temperature. 5. Centrifuge Centrifuge the compound solution (from step 3) at 4000 rpm for 5 min before loading to donor chambers. 6. Dosing Add solution based on the volumes listed in the following table (make sure to take extra 100 μL of donor sample for T0 as Backup).
7. Apical LYT0 samples To determine LY concentration in the apical chember, take 100 μL sample from apical chambers into an opaque plate for LYT0. 8. Prewarm Prewarm apical and basolateral plates at 37° C. for about 5 min, then begin transport by placing the apical plate onto basolateral plate. 9. Incubation Keep the plates in incubator at 37° C. for 90 min. 10. Standard Curve preparation
11. Transport termination Separate the apical plate from the basolateral plate after 90-min incubation.
Receiver sample: 60 μL of receiver sample+60 μL ACN with IS (Osalmid or Imipramine)
Study details: Test concentration 10 μM
Test systems: Caco-2/HBSS solution
Incubation conditions: 0, 90 min at 37° C.
Sample size: Duplicates (n=2)
Bioanalytical method: LC-MS/MS
For Millicell-24 Cell Culture Plates: surface area of the membrane=0.7 cm^2, VA=0.8 mL (A-to-B) or 0.4 mL (B-to-A)
1. Papp values were calculated based on calculated concentrations.
The compound numbers correspond to the compound numbers in Table 1.

| SMILES | IC50 [1] | IC50 [2] | Papp A→B at 90 min, 10 μM [3] | Papp B→A at 90 min, 10 μM [3] | efflux ratio at 90 min, 10 μM [3] |
| --- | --- | --- | --- | --- | --- |
| Cc1cccnc1[C@@H]1CCC[C@H](c2nc3c(Br)ccc(Br)c3n2CC2CCN(C)CC2)N1C [I-47] | 100 to 1000 nM | 0.01 to 100 nM | 0.1 to 10 ×10⁻⁶ cm/s | 10 to 30 ×10⁻⁶ cm/s | 0.1 to 10 |
| Cc1cccnc1[C@@H]1CCC[C@H](c2nc3ccccc3n2CC2CCN(CC(F)(F)F)CC2)N1C [I-24, 2-((2R,6S)-1-methyl-6-(3-methylpyridin-2-yl)piperidin-2-yl)-1-((1-(2,2,2-trifluoroethyl)piperidin-4-yl)methyl)-1H-benzo[d]imidazole] | ≥ 1000 nM | 100 to 1000 nM | 10 to 30 ×10⁻⁶ cm/s | 10 to 30 ×10⁻⁶ cm/s | 0.1 to 10 |
| Cc1cccnc1[C@@H]1CCC[C@H](c2nc3ccccc3n2CCCCN2CCOCC2)N1C [I-39] | ≥ 1000 nM | 100 to 1000 nM | 10 to 30 ×10⁻⁶ cm/s | 10 to 30 ×10⁻⁶ cm/s | 0.1 to 10 |
| CN1CC2CCC(C1)N2c1cccc2nc([C@H]3CCC[C@@H](c4ncccc4Cl)N3)[nH]c12 [I-121] | 0.01 to 100 nM | 0.01 to 100 nM | 10 to 30 ×10⁻⁶ cm/s | 10 to 30 ×10⁻⁶ cm/s | 0.1 to 10 |
| Cc1cccnc1[C@@H]1CCC[C@H](c2nc3cccc(N4CC5CC(C4)N5C)c3[nH]2)N1C [I-109] | 100 to 1000 nM | 0.01 to 100 nM | 0.1 to 10 ×10⁻⁶ cm/s | 10 to 30 ×10⁻⁶ cm/s | 0.1 to 10 |
| Cc1cccnc1[C@@H]1CCC[C@H](c2nc3ccccc3n2CCC#N)N1C [I-160] | ≥ 1000 nM | 100 to 1000 nM | > 30 ×10⁻⁶ cm/s | > 30 ×10⁻⁶ cm/s | 0.1 to 10 |
| Cc1cccnc1[C@@H]1CCC[C@H](c2nc3ccccc3n2Cc2ccccc2-n2cccn2)N1 [I-161] | ≥ 1000 nM | 100 to 1000 nM | > 30 ×10⁻⁶ cm/s | > 30 ×10⁻⁶ cm/s | 0.1 to 10 |
| Cc1cccnc1[C@@H]1CCC[C@H](c2nc3ccccc3n2CCn2cccn2)N1C [I-7, 1-(2-(1H-pyrazol-1-yl)ethyl)-2-((2R,6S)-1-methyl-6-(3-methylpyridin-2-yl)piperidin-2-yl)-1H-benzo[d]imidazole] | ≥ 1000 nM | 0.01 to 100 nM | 10 to 30 ×10⁻⁶ cm/s | 10 to 30 ×10⁻⁶ cm/s | 0.1 to 10 |

Results, then the compound that gave them:

| IC50 [1] | IC50 [2] | Papp A→B at 90 min, 10 μM [3] | Papp B→A at 90 min, 10 μM [3] | efflux ratio at 90 min, 10 μM [3] | SMILES |
| --- | --- | --- | --- | --- | --- |
| 0.01 to 100 nM | 0.01 to 100 nM | 0.1 to 10 ×10⁻⁶ cm/s | 10 to 30 ×10⁻⁶ cm/s | 0.1 to 10 | CCN1[C@@H](c2nc3ccccc3n2CC2CCN(C)CC2)CCC[C@H]1c1ncccc1C [I-25, 2-((2R,6S)-1-ethyl-6-(3-methylpyridin-2-yl)piperidin-2-yl)-1-((1-methylpiperidin-4-yl)methyl)-1H-benzo[d]imidazole] |
| 0.01 to 100 nM | 0.01 to 100 nM | 10 to 30 ×10⁻⁶ cm/s | 10 to 30 ×10⁻⁶ cm/s |  | [2H]C([2H])([2H])N1CCN(c2cccc3nc([C@H]4CCC[C@@H](c5ncccc5C)N4C)[nH]c23)CC1 [I-111] |
| 100 to 1000 nM | 0.01 to 100 nM | 10 to 30 ×10⁻⁶ cm/s | 10 to 30 ×10⁻⁶ cm/s | 0.1 to 10 | Cc1cccnc1[C@@H]1CCC[C@H](c2nc3cccc(N4CCNC5(CC5)C4)c3[nH]2)N1C [I-129] |
| 0.01 to 100 nM | 0.01 to 100 nM | 0.1 to 10 ×10⁻⁶ cm/s | 0.1 to 10 ×10⁻⁶ cm/s |  | Cc1cccnc1[C@H]1CCC[C@@H](c2nc3cccc(N4CCN(C)CC4)c3[nH]2)N1C (single isomer, unassigned) [I-3b] |
| 0.01 to 100 nM | 0.01 to 100 nM | 10 to 30 ×10⁻⁶ cm/s | 10 to 30 ×10⁻⁶ cm/s | 0.1 to 10 | CN1CCN(c2cccc3nc([C@H]4CCC[C@@H](c5ncccc5C5CC5)N4C)[nH]c23)CC1 (stereo in doubt) [I-61] |
| 0.01 to 100 nM | 0.01 to 100 nM | 10 to 30 ×10⁻⁶ cm/s | 0.1 to 10 ×10⁻⁶ cm/s | 0.1 to 10 | Cc1cccnc1[C@@H]1CCC[C@H](c2nc3cccc(N4CCN(C(C)C)CC4)c3[nH]2)N1C [I-75] |
| 0.01 to 100 nM | 0.01 to 100 nM | 0.1 to 10 ×10⁻⁶ cm/s | 10 to 30 ×10⁻⁶ cm/s | > 30 | Cc1cccnc1[C@@H]1C[C@H](O)C[C@H](c2nc3cccc(N4CCN(C)CC4)c3[nH]2)N1C [I-100] |
| 0.01 to 100 nM | 0.01 to 100 nM | 0.1 to 10 ×10⁻⁶ cm/s | 10 to 30 ×10⁻⁶ cm/s | 0.1 to 10 | Cc1c(Cl)ccnc1[C@@H]1CCC[C@H](c2nc3cccc(N4CCN(C)CC4)c3[nH]2)N1 [I-140] |
| 0.01 to 100 nM | 0.01 to 100 nM | 10 to 30 ×10⁻⁶ cm/s | 10 to 30 ×10⁻⁶ cm/s | 0.1 to 10 | CCN1CCN(c2cccc3nc([C@H]4CCC[C@@H](c5ncccc5C)N4C)[nH]c23)CC1 [I-74] |
| 0.01 to 100 nM | 0.01 to 100 nM | 0.1 to 10 ×10⁻⁶ cm/s | 10 to 30 ×10⁻⁶ cm/s | 0.1 to 10 | Cc1cccnc1[C@@H]1CCC[C@H](c2nc3cccc(N4CCC(N(C)C)CC4)c3[nH]2)N1C [I-67] |
| 0.01 to 100 nM | 0.01 to 100 nM | 0.1 to 10 ×10⁻⁶ cm/s | 0.1 to 10 ×10⁻⁶ cm/s | 0.1 to 10 | Cc1cccnc1[C@@H]1CCC[C@H](c2nc3ccccc3n2CCCN(C)C)N1C [I-5, N,N-dimethyl-3-(2-((2R,6S)-1-methyl-6-(3-methylpyridin-2-yl)piperidin-2-yl)-1H-benzo[d]imidazol-1-yl)propan-1-amine] |
